Legend:
Assay type in all cases: in vivo
Digitaria ciliaris [1] = assay: Test Example 5: herbicidal effect by foliage application, plastic box (symbol F); conditions: 320 g/ha, 3 weeks after application
In short: (§1)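 Seeds were sown in sterilized diluvial soil, covered with about 1.5 cm of soil and grown 14 days in a greenhouse at 25° C. to 30° C. An emulsifiable formulation diluted in water to a set rate was sprayed over foliage, and injury was scored 3 weeks later.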

soybean = assay: Test Example 5: effect on crop by foliage application, plastic box (symbol d); conditions: 320 g/ha, 3 weeks after application
In short: (§2)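 Seeds were sown in spots in sterilized diluvial soil held in a plastic box 21 cm × 13 cm × 7 cm deep, covered with about 1.5 cm of soil, and grown in a greenhouse at 25° C. to 30° C.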

Apera spica-venti = assay: Test Example 5: herbicidal effect by foliage application, plastic box (symbol L); conditions: 320 g/ha, 3 weeks after application
In short: as §1

beet [2] = assay: Test Example 4: effect on crop by soil treatment (symbol f); conditions: application herbicide amount 320 g/ha
In short: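 Crop seeds, among them rice, wheat, beet and rapeseed, were sown in sterilized diluvial soil and covered with about 1.5 cm of soil. Boxes were kept in a greenhouse at 25° C. to 30° C. for plant growth.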

Avena fatua = assay: Test Example 4: herbicidal effect by soil treatment (symbol I); conditions: application herbicide amount 320 g/ha
In short: (§3)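 Seeds were sown in sterilized diluvial soil, covered with about 1.5 cm of soil, and the soil surface was sprayed with a water-diluted emulsion of the compound at a predetermined rate. Plants grew in a greenhouse at 25° C. to 30° C.; effects were scored visually 3 weeks after application.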

Abutilon theophrasti [3] = assay: Test Example 4: herbicidal effect by soil treatment (symbol M); conditions: application herbicide amount 320 g/ha
In short: as §3

Abutilon theophrasti [4] = assay: Test Example 5: herbicidal effect by foliage application, plastic box (symbol M); conditions: 320 g/ha, 3 weeks after application
In short: as §1

rice plant = assay: Test Example 5: effect on crop by foliage application, plastic box (symbol b); conditions: 320 g/ha, 3 weeks after application
In short: as §2

[5] = system: Echinochloa crus-galli var. crus-galli; assay: Test Example 3: herbicidal effect by foliage application, Wagner pot (symbol H); conditions: application herbicide amount 320 g/ha
In short: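 Weeds and rice were sown in alluvial soil under 0.1–0.5 cm of standing water and grown for 14 days in a 25–30 °C greenhouse. An emulsion of the compound, diluted in water to a set dose, was sprayed evenly onto the foliage. Effect was scored against fixed criteria 3 weeks after treatment.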

Digitaria ciliaris [6] = assay: Test Example 4: herbicidal effect by soil treatment (symbol F); conditions: application herbicide amount 320 g/ha
In short: as §3

[7] = system: Echinochloa oryzacola Vasing.; assay: Test Example 2: herbicidal activity, application during weed generation in submerged conditions (symbol A); conditions: Table 23; application herbicide amount 320 g/ha; grade 0-5 by criteria of Test Example 1
In short: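 Alluvial soil in pots was flooded to a 4 cm water depth and sown with a mix of the three weed species, then grown in a greenhouse at 25° C. to 30° C. At the one- to two-leaf stage, an emulsifiable formulation diluted in water to a set dose was applied to the water surface. Effects were scored visually 3 weeks later.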

Alopecurus myosuroides = assay: Test Example 4: herbicidal effect by soil treatment (symbol J); conditions: application herbicide amount 320 g/ha
In short: as §3

Amaranthus retroflexus = assay: Test Example 5: herbicidal effect by foliage application, plastic box (symbol N); conditions: 320 g/ha, 3 weeks after application
In short: as §1

beet [8] = assay: Test Example 5: effect on crop by foliage application, plastic box (symbol f); conditions: 320 g/ha, 3 weeks after application
In short: as §2

`CON=C(C)C(C)C1CC(O)=C(c2c(C)cc(C)cc2C)C1=O` (stereo not shown) [1-032] was tested, and the “F: Digitaria ciliaris, herbicidal effect grade” value (shortened to “F: Digitaria ciliaris”) (Digitaria ciliaris [1]) was 5 (Herbicidal ratio of 90% or more (almost completely withered)), the “d: soybean, effect on crop grade” value (soybean) was 4 (Herbicidal ratio of 70% or higher and lower than 90%) and the “L: Apera spica-venti, herbicidal effect grade” value (“L: Apera spica-venti” for short) (Apera spica-venti) was 5 (Herbicidal ratio of 90% or more (almost completely withered)). For the same molecule, the “f (beet) effect on crop grade” value (beet [2]) was 4 (Herbicidal ratio of 70% or higher and lower than 90%), the “I (Avena fatua) herbicidal effect grade” value (Avena fatua) was 5 (Herbicidal ratio of 90% or more (almost completely withered)) and the “M (Abutilon theophrasti) herbicidal effect grade” value (Abutilon theophrasti [3]) was 4 (Herbicidal ratio of 70% or higher and lower than 90%). The “M: Abutilon theophrasti, herbicidal effect grade” value (shortened to “M: Abutilon theophrasti”) (Abutilon theophrasti [4]) was 4 (Herbicidal ratio of 70% or higher and lower than 90%), the “b: directly sowed rice plant, effect on crop grade” value (shortened to “b: directly sowed rice plant”) (rice plant) was 5 (Herbicidal ratio of 90% or more (almost completely withered)) and the “herbicidal effect on H (Echinochloa crus-galli var. crus-galli), grade 0-5” value (“herbicidal effect on H” below) [5] was 5 (Herbicidal ratio of 90% or more (almost completely withered)). For the same molecule, the “F (Digitaria ciliaris) herbicidal effect grade” value (Digitaria ciliaris [6]) was 5 (Herbicidal ratio of 90% or more (almost completely withered)), the “Herbicidal effect grade, A: Echinochloa oryzacola Vasing.” value [7] was 5 (Herbicidal ratio of 90% or more (almost completely withered)) and the “J (Alopecurus myosuroides) herbicidal effect grade” value (Alopecurus myosuroides) was 5 (Herbicidal ratio of 90% or more (almost completely withered)). For the same molecule, the “N: Amaranthus retroflexus, herbicidal effect grade” value (“N: Amaranthus retroflexus” below) (Amaranthus retroflexus) was 3 (Herbicidal ratio of 40% or higher and lower than 70%) and the “f: beet, effect on crop grade” value (beet [8]) was 3 (Herbicidal ratio of 40% or higher and lower than 70%).

For `CON=C(C)CC1CC(OC(=O)C(C)(C)OC(C)=O)=C(c2c(C)cc(C)cc2C)C1=O` (stereo not shown) [1-034], the “F: Digitaria ciliaris” value (Digitaria ciliaris [1]) was 5 (Herbicidal ratio of 90% or more (almost completely withered)), the “d: soybean, effect on crop grade” value (soybean) was 4 (Herbicidal ratio of 70% or higher and lower than 90%) and the “L: Apera spica-venti” value (Apera spica-venti) was 5 (Herbicidal ratio of 90% or more (almost completely withered)). For the same molecule, the “f (beet) effect on crop grade” value (beet [2]) was 4 (Herbicidal ratio of 70% or higher and lower than 90%), the “I (Avena fatua) herbicidal effect grade” value (Avena fatua) was 5 (Herbicidal ratio of 90% or more (almost completely withered)) and the “M (Abutilon theophrasti) herbicidal effect grade” value (Abutilon theophrasti [3]) was 5 (Herbicidal ratio of 90% or more (almost completely withered)). The “M: Abutilon theophrasti” value (Abutilon theophrasti [4]) was 4 (Herbicidal ratio of 70% or higher and lower than 90%), the “b: directly sowed rice plant” value (rice plant) was 5 (Herbicidal ratio of 90% or more (almost completely withered)) and the “herbicidal effect on H” value [5] was 5 (Herbicidal ratio of 90% or more (almost completely withered)). For the same molecule, the “F (Digitaria ciliaris) herbicidal effect grade” value (Digitaria ciliaris [6]) was 5 (Herbicidal ratio of 90% or more (almost completely withered)), the “Herbicidal effect grade, A: Echinochloa oryzacola Vasing.” value [7] was 5 (Herbicidal ratio of 90% or more (almost completely withered)) and the “J (Alopecurus myosuroides) herbicidal effect grade” value (Alopecurus myosuroides) was 5 (Herbicidal ratio of 90% or more (almost completely withered)). The “N: Amaranthus retroflexus” value (Amaranthus retroflexus) was 3 (Herbicidal ratio of 40% or higher and lower than 70%) and the “f: beet, effect on crop grade” value (beet [8]) was 4 (Herbicidal ratio of 70% or higher and lower than 90%).

In the case of `CON=C(C)CC1CC(OC(=O)CCC2CCCCC2)=C(c2c(C)cc(C)cc2C)C1=O` (stereo not shown) [1-035], the “F: Digitaria ciliaris” value (Digitaria ciliaris [1]) is reported as 5 (Herbicidal ratio of 90% or more (almost completely withered)), the “d: soybean, effect on crop grade” value (soybean) is reported as 4 (Herbicidal ratio of 70% or higher and lower than 90%) and the “L: Apera spica-venti” value (Apera spica-venti) is reported as 5 (Herbicidal ratio of 90% or more (almost completely withered)). For the same molecule, the “f (beet) effect on crop grade” value (beet [2]) was 3 (Herbicidal ratio of 40% or higher and lower than 70%), the “I (Avena fatua) herbicidal effect grade” value (Avena fatua) was 4 (Herbicidal ratio of 70% or higher and lower than 90%) and the “M (Abutilon theophrasti) herbicidal effect grade” value (Abutilon theophrasti [3]) was 5 (Herbicidal ratio of 90% or more (almost completely withered)). The “M: Abutilon theophrasti” value (Abutilon theophrasti [4]) was 4 (Herbicidal ratio of 70% or higher and lower than 90%), the “b: directly sowed rice plant” value (rice plant) was 5 (Herbicidal ratio of 90% or more (almost completely withered)) and the “herbicidal effect on H” value [5] was 5 (Herbicidal ratio of 90% or more (almost completely withered)). For the same molecule, the “F (Digitaria ciliaris) herbicidal effect grade” value (Digitaria ciliaris [6]) was 5 (Herbicidal ratio of 90% or more (almost completely withered)), the “Herbicidal effect grade, A: Echinochloa oryzacola Vasing.” value [7] was 5 (Herbicidal ratio of 90% or more (almost completely withered)) and the “J (Alopecurus myosuroides) herbicidal effect grade” value (Alopecurus myosuroides) was 5 (Herbicidal ratio of 90% or more (almost completely withered)). The “N: Amaranthus retroflexus” value (Amaranthus retroflexus) was 3 (Herbicidal ratio of 40% or higher and lower than 70%) and the “f: beet, effect on crop grade” value (beet [8]) was 2 (Herbicidal ratio of 20% or higher and lower than 40%).

For `CON=C(C)CC1CC(OC(=O)C2(C)CC2(Cl)Cl)=C(c2c(C)cc(C)cc2C)C1=O` (stereo not shown) [1-036], the “F: Digitaria ciliaris” value (Digitaria ciliaris [1]) was 5 (Herbicidal ratio of 90% or more (almost completely withered)), the “d: soybean, effect on crop grade” value (soybean) was 4 (Herbicidal ratio of 70% or higher and lower than 90%) and the “L: Apera spica-venti” value (Apera spica-venti) was 5 (Herbicidal ratio of 90% or more (almost completely withered)). The “f (beet) effect on crop grade” value (beet [2]) was 3 (Herbicidal ratio of 40% or higher and lower than 70%), the “I (Avena fatua) herbicidal effect grade” value (Avena fatua) was 5 (Herbicidal ratio of 90% or more (almost completely withered)) and the “M (Abutilon theophrasti) herbicidal effect grade” value (Abutilon theophrasti [3]) was 5 (Herbicidal ratio of 90% or more (almost completely withered)). The “M: Abutilon theophrasti” value (Abutilon theophrasti [4]) was 4 (Herbicidal ratio of 70% or higher and lower than 90%), the “b: directly sowed rice plant” value (rice plant) was 5 (Herbicidal ratio of 90% or more (almost completely withered)) and the “herbicidal effect on H” value [5] was 5 (Herbicidal ratio of 90% or more (almost completely withered)). For the same molecule, the “F (Digitaria ciliaris) herbicidal effect grade” value (Digitaria ciliaris [6]) was 5 (Herbicidal ratio of 90% or more (almost completely withered)), the “Herbicidal effect grade, A: Echinochloa oryzacola Vasing.” value [7] was 5 (Herbicidal ratio of 90% or more (almost completely withered)) and the “J (Alopecurus myosuroides) herbicidal effect grade” value (Alopecurus myosuroides) was 5 (Herbicidal ratio of 90% or more (almost completely withered)). The “N: Amaranthus retroflexus” value (Amaranthus retroflexus) was 4 (Herbicidal ratio of 70% or higher and lower than 90%) and the “f: beet, effect on crop grade” value (beet [8]) was 3 (Herbicidal ratio of 40% or higher and lower than 70%).

In the case of `COCCOC1=C(c2c(C)cc(C)cc2C)C(=O)C(CC(C)=NOC)C1` (stereo not shown) [1-037], the “F: Digitaria ciliaris” value (Digitaria ciliaris [1]) is reported as 0 (Herbicidal ratio of 5% or lower (almost no effect)), the “d: soybean, effect on crop grade” value (soybean) is reported as 0 (Herbicidal ratio of 5% or lower (almost no effect)) and the “L: Apera spica-venti” value (Apera spica-venti) is reported as 0 (Herbicidal ratio of 5% or lower (almost no effect)). For the same molecule, the “f (beet) effect on crop grade” value (beet [2]) was 0 (Herbicidal ratio of 5% or lower (almost no effect)), the “I (Avena fatua) herbicidal effect grade” value (Avena fatua) was 0 (Herbicidal ratio of 5% or lower (almost no effect)) and the “M (Abutilon theophrasti) herbicidal effect grade” value (Abutilon theophrasti [3]) was 0 (Herbicidal ratio of 5% or lower (almost no effect)). For the same molecule, the “M: Abutilon theophrasti” value (Abutilon theophrasti [4]) was 0 (Herbicidal ratio of 5% or lower (almost no effect)), the “b: directly sowed rice plant” value (rice plant) was 0 (Herbicidal ratio of 5% or lower (almost no effect)) and the “herbicidal effect on H” value [5] was 0 (Herbicidal ratio of 5% or lower (almost no effect)). The “F (Digitaria ciliaris) herbicidal effect grade” value (Digitaria ciliaris [6]) was 0 (Herbicidal ratio of 5% or lower (almost no effect)), the “Herbicidal effect grade, A: Echinochloa oryzacola Vasing.” value [7] was 0 (Herbicidal ratio of 5% or lower (almost no effect)) and the “J (Alopecurus myosuroides) herbicidal effect grade” value (Alopecurus myosuroides) was 0 (Herbicidal ratio of 5% or lower (almost no effect)). The “N: Amaranthus retroflexus” value (Amaranthus retroflexus) was 0 (Herbicidal ratio of 5% or lower (almost no effect)) and the “f: beet, effect on crop grade” value (beet [8]) was 0 (Herbicidal ratio of 5% or lower (almost no effect)).
